Assay results reported in the NIST ThermoML archive (doi:10.1021/je1003065).

Assay: mn = molality of the nth substance listed, in mol/kg
Conditions: Liquid, Vibrating tube method

[Br-].[Li+] [lithium bromide] + CCO
Conditions	mass density [kg/m3]
373.16 K, 5125 kPa, m1 = 0.5972	762.2
373.16 K, 9909 kPa, m1 = 1.462	822.87
373.16 K, 29954 kPa, m1 = 0.2335	764.93
373.16 K, 40172 kPa, m1 = 0.5972	798.56
373.16 K, 49979 kPa, m1 = 0.5972	807.22
373.16 K, 79993 kPa, m1 = 1.462	881.25
373.16 K, 89924 kPa, m1 = 1.462	887.37
373.16 K, 99892 kPa, m1 = 2.272	936.43
373.17 K, 1353 kPa, m1 = 2.272	860.5
373.17 K, 20097 kPa, m1 = 1.462	833.45
373.17 K, 29993 kPa, m1 = 1.462	842.95
373.17 K, 49993 kPa, m1 = 1.462	860.02
373.17 K, 50023 kPa, m1 = 0.2335	783.79
373.17 K, 59801 kPa, m1 = 0.5972	815.22
373.17 K, 99791 kPa, m1 = 1.462	893.1
373.18 K, 4985 kPa, m1 = 2.272	864.78
373.18 K, 9782 kPa, m1 = 2.272	870.51
373.19 K, 19637 kPa, m1 = 2.272	879.78
373.19 K, 29927 kPa, m1 = 2.272	888.82
373.19 K, 39864 kPa, m1 = 2.272	896.99
373.19 K, 40176 kPa, m1 = 1.462	851.97
398.11 K, 79836 kPa, m1 = 2.272	910.54
398.12 K, 10085 kPa, m1 = 1.462	801.33
398.12 K, 39724 kPa, m1 = 2.272	879.8
398.12 K, 49958 kPa, m1 = 2.272	888.51
398.12 K, 59977 kPa, m1 = 2.272	896.37
398.12 K, 69928 kPa, m1 = 2.272	903.66
398.13 K, 5252 kPa, m1 = 1.462	795.21
398.13 K, 29993 kPa, m1 = 2.272	870.74
398.13 K, 39727 kPa, m1 = 3.368	934.47
398.14 K, 9704 kPa, m1 = 2.272	848.87
398.14 K, 9986 kPa, m1 = 2.833	879.45
398.14 K, 19987 kPa, m1 = 3.368	916.46
398.14 K, 20117 kPa, m1 = 2.272	860.65
398.14 K, 29928 kPa, m1 = 0.2335	744.1
398.14 K, 29993 kPa, m1 = 3.368	926
398.14 K, 39959 kPa, m1 = 1.462	834.18
398.14 K, 40001 kPa, m1 = 0.5972	779.67
398.14 K, 49956 kPa, m1 = 2.833	917.53
398.14 K, 89925 kPa, m1 = 2.833	945.26
398.14 K, 99863 kPa, m1 = 0.5972	827.19
398.15 K, 1326 kPa, m1 = 2.833	868.98
398.15 K, 1425 kPa, m1 = 0.9499	756.04
398.15 K, 2012 kPa, m1 = 3.368	896.84
398.15 K, 2214 kPa, m1 = 1.462	790.21
398.15 K, 2451 kPa, m1 = 0.2335	705.58
398.15 K, 2804 kPa, m1 = 0.5972	733.32
398.15 K, 5002 kPa, m1 = 2.833	873.54
398.15 K, 5024 kPa, m1 = 0.2335	709.8
398.15 K, 5025 kPa, m1 = 0.9499	761.36
398.15 K, 9911 kPa, m1 = 3.368	905.89
398.15 K, 9986 kPa, m1 = 0.9499	768.11
398.15 K, 10023 kPa, m1 = 0.2335	717.61
398.15 K, 19859 kPa, m1 = 1.462	812.89
398.15 K, 19923 kPa, m1 = 0.9499	780.63
398.15 K, 19925 kPa, m1 = 2.833	890.37
398.15 K, 29784 kPa, m1 = 0.9499	791.83
398.15 K, 29946 kPa, m1 = 1.462	823.95
398.15 K, 29996 kPa, m1 = 0.5972	769.06
398.15 K, 39926 kPa, m1 = 0.9499	802.25
398.15 K, 39941 kPa, m1 = 0.2335	754.26
398.15 K, 40021 kPa, m1 = 2.833	909.38
398.15 K, 49925 kPa, m1 = 1.462	843.34
398.15 K, 49926 kPa, m1 = 3.368	942.62
398.15 K, 49931 kPa, m1 = 0.2335	764.05
398.15 K, 49993 kPa, m1 = 0.5972	789.19
398.15 K, 50024 kPa, m1 = 0.9499	811.67
398.15 K, 59926 kPa, m1 = 0.9499	820.12
398.15 K, 59926 kPa, m1 = 2.833	925.07
398.15 K, 69784 kPa, m1 = 0.9499	827.92
398.15 K, 69953 kPa, m1 = 0.2335	781.36
398.15 K, 69979 kPa, m1 = 0.5972	805.77
398.15 K, 79787 kPa, m1 = 0.5972	813.07
398.15 K, 79935 kPa, m1 = 0.9499	835.45
398.15 K, 80002 kPa, m1 = 2.833	938.86
398.15 K, 89921 kPa, m1 = 0.2335	795.82
398.15 K, 89936 kPa, m1 = 0.9499	842.54
398.15 K, 89963 kPa, m1 = 2.272	917.33
398.15 K, 89994 kPa, m1 = 0.5972	820.32
398.15 K, 99021 kPa, m1 = 0.9499	848.81
398.15 K, 99624 kPa, m1 = 0.2335	802.67
398.15 K, 99816 kPa, m1 = 1.462	879.34
398.15 K, 99985 kPa, m1 = 2.833	951.65
398.15 K, 100000 kPa, m1 = 3.368	976.03
398.16 K, 5023 kPa, m1 = 3.368	900.37
398.16 K, 19941 kPa, m1 = 0.5972	757.12
398.16 K, 19974 kPa, m1 = 0.2335	731.71
398.16 K, 29947 kPa, m1 = 2.833	900.32
398.16 K, 60031 kPa, m1 = 1.462	851.51
398.16 K, 60122 kPa, m1 = 3.368	950.15
398.16 K, 69784 kPa, m1 = 2.833	932.03
398.16 K, 69947 kPa, m1 = 1.462	859.16
398.16 K, 69957 kPa, m1 = 3.368	956.94
398.16 K, 79919 kPa, m1 = 3.368	963.47
398.16 K, 80014 kPa, m1 = 0.2335	788.79
398.16 K, 89928 kPa, m1 = 1.462	872.71
398.16 K, 89993 kPa, m1 = 3.368	969.83
398.17 K, 5071 kPa, m1 = 0.5972	736.75
398.17 K, 9730 kPa, m1 = 0.5972	743.51
398.17 K, 59907 kPa, m1 = 0.5972	797.77
398.17 K, 59978 kPa, m1 = 0.2335	773.47
398.18 K, 1833 kPa, m1 = 2.272	839.1
398.18 K, 80059 kPa, m1 = 1.462	866.49
398.19 K, 99619 kPa, m1 = 2.272	923.71
398.22 K, 4702 kPa, m1 = 2.272	842.75
